Measured values published in US6914045B2, “Glycopeptide antibiotics” (Wyeth Holdings Corporation, priority 2001, dated 2005).
Values after ≈ are worked out from the molar mass of the structure shown.

Columns and labels:
Enterococcus sp. = test: in vitro antibacterial evaluation, MIC by broth dilution; format: cell-based; settings: broth dilution, 18 hours at 35° C.
Summary of the method: (§1)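 Broth dilution per NCCLS M7-A2 in Mueller-Hinton II medium, inoculum 5×10^5 CFU/mL, antibiotic range 64-0.06 μg/mL. MIC taken as lowest concentration inhibiting growth; Gram-positive panel includes recent clinical isolates resistant to methicillin, penicillin and/or vancomycin.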

Escherichia coli = test: as above; format: cell-based; settings: 18 hours at 35° C.
Summary of the method: as §1

Staphylococcus sp. = test: as above; format: cell-based; settings: broth dilution, 18 hours at 35° C.
Summary of the method: as §1

Streptococcus sp. = test: as above; format: cell-based; settings: broth dilution, 18 hours at 35° C.
Summary of the method: as §1

[1] = tested on: Staphylococcus aureus-SMITH (GC 4543); test: acute lethal infection in mice; format: in vivo; settings: acute lethal infection, female CD-1 mice, intraperitoneal challenge, intravenous 30 min. after infection, 7 day survival
Summary of the method: (§2)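 Intraperitoneal challenge of female CD-1 mice with a bacterial dose lethal to untreated animals within 24-48 hr; single iv treatment 30 min later, 5 mice per dose level. Survival is scored at day 7 and pooled from three experiments to give the median effective dose.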

[2] = tested on: Streptococcus pneumoniae (GC 1894); test: acute lethal infection in mice; format: in vivo; settings: female CD-1 mice, intraperitoneal challenge, intravenous 30 min. after infection, 7 day survival
Summary of the method: as §2

[3] = clinical pathology (serum clinical chemistry) in mice; format: in vivo; settings: CD-1 mice, 20 mg/kg intravenously daily for 9 days, sera day 10
Procedure: 20-day-old CD-1 mice were divided into a vehicle control group (5 mice) and a treatment group (5 mice). Samples of glycopeptide antibiotics were administered at 20 mg/kg intravenously daily for 9 days.

[4] = anatomic pathology (histopathology of heart and kidney) in mice; format: in vivo; settings: CD-1 mice, 20 mg/kg intravenously daily for 9 days, necropsy day 10, microscopic histopathology
Procedure: Samples of tissues from necropsied mice were formalin-fixed, paraffin-embedded, sectioned, stained with hematoxylin and eosin, and examined microscopically. Histopathologic findings were recorded. These findings were subjectively graded on a scale corresponding to slight, mild, moderate, marked and severe as compared to untreated controls.

CC(c1ccccc1)C1NC(=O)CNC(=O)C(CO)NC(=O)C(C(O)C2CNC(=N)N2C2OC(CO)C(O)C(O)C2O)NC(=O)C(C(O)C2CNC(=N)N2)NC(=O)C(Cc2ccc(OC3OC(CO)C(OC4OC5COC(c6ccccc6)OC5C(O)C4O)C(O)C3O)cc2)NC1=O (centres unmarked) [Example 104, Cyclo[glycyl-3-methylphenylalanyl-O-[4-O-(4,6-O-benzylidenehexopyranosyl)hexopyranosyl]-tyrosyl-3-(2-iminoimidazolidin-4-yl)seryl-3-(3-hexopyranosyl-2-iminoimidazolidin-4-yl)-serylseryl]]
MIC Enterococcus avium (GC 4558) (Enterococcus sp.; Enterococcus avium (GC 4558)): 2 to 4 µg/mL | MIC Enterococcus faecalis (ATCC 29212) (Enterococcus sp.; Enterococcus faecalis (ATCC 29212)): 2 to 4 µg/mL | MIC Enterococcus faecalis (GC 2242) (Enterococcus sp.; Enterococcus faecalis (GC 2242)): 2 µg/mL (≈ 1.45 µM) | MIC Enterococcus faecalis (GC 2691) (Enterococcus sp.; Enterococcus faecalis (GC 2691)): 4 µg/mL (≈ 2.89 µM) | MIC Enterococcus faecalis (GC 3059) (Enterococcus sp.; Enterococcus faecalis (GC 3059)): 4 µg/mL (≈ 2.89 µM) | MIC Enterococcus faecalis (GC 4552) (Enterococcus sp.; Enterococcus faecalis (GC 4552)): 4 µg/mL (≈ 2.89 µM) | MIC Enterococcus faecalis (GC 4553) (Enterococcus sp.; Enterococcus faecalis (GC 4553)): 4 µg/mL (≈ 2.89 µM) | MIC Enterococcus faecalis (GC 4554) (Enterococcus sp.; Enterococcus faecalis (GC 4554)): 4 µg/mL (≈ 2.89 µM) | MIC Enterococcus faecalis (GC 6189) (Enterococcus sp.; Enterococcus faecalis (GC 6189)): 2 µg/mL (≈ 1.45 µM) | MIC Enterococcus faecium (GC 2243) (Enterococcus sp.; Enterococcus faecium (GC 2243)): 2 µg/mL (≈ 1.45 µM) | MIC Enterococcus faecium (GC 4556) (Enterococcus sp.; Enterococcus faecium (GC 4556)): 2 to 4 µg/mL | MIC Enterococcus faecium (GC 4557) (Enterococcus sp.; Enterococcus faecium (GC 4557)): 2 µg/mL (≈ 1.45 µM) | MIC Enterococcus faecalis (ATCC 29212) (Enterococcus sp.; strain ATCC 29212): 2 to 4 µg/mL | MIC Enterococcus faecalis (GC 2242) (Enterococcus sp.; strain GC 2242): 2 µg/mL (≈ 1.45 µM) | MIC Enterococcus faecium (GC 2243) (Enterococcus sp.; strain GC 2243): 2 µg/mL (≈ 1.45 µM) | MIC Enterococcus faecalis (GC 2691) (Enterococcus sp.; strain GC 2691): 4 µg/mL (≈ 2.89 µM) | MIC Enterococcus faecalis (GC 3059) (Enterococcus sp.; strain GC 3059): 4 µg/mL (≈ 2.89 µM) | MIC Enterococcus faecalis (GC 4552) (Enterococcus sp.; strain GC 4552): 4 µg/mL (≈ 2.89 µM) | MIC Enterococcus faecalis (GC 4553) (Enterococcus sp.; strain GC 4553): 4 µg/mL (≈ 2.89 µM) | MIC Enterococcus faecalis (GC 4554) (Enterococcus sp.; strain GC 4554): 4 µg/mL (≈ 2.89 µM) | MIC Enterococcus faecium (GC 4556) (Enterococcus sp.; strain GC 4556): 2 to 4 µg/mL | MIC Enterococcus faecium (GC 4557) (Enterococcus sp.; strain GC 4557): 2 µg/mL (≈ 1.45 µM) | MIC Enterococcus avium (GC 4558) (Enterococcus sp.; strain GC 4558): 2 to 4 µg/mL | MIC Enterococcus faecalis (GC 6189) (Enterococcus sp.; strain GC 6189): 2 µg/mL (≈ 1.45 µM) | MIC Escherichia coli (ATCC 25922) (Escherichia coli; strain ATCC 25922): 32 to 64 µg/mL | MIC Escherichia coli (GC 4559) (Escherichia coli; strain GC 4559): 16 to 32 µg/mL | MIC Escherichia coli (GC 4560) (Escherichia coli; strain GC 4560): 0.5 to 1 µg/mL | MIC Coagulase Negative Staphylococcus (GC 4547) (Staphylococcus sp.): 1 µg/mL (≈ 0.723 µM) | MIC Coagulase Negative Staphylococcus (GC 4548) (Staphylococcus sp.): 0.5 to 1 µg/mL | MIC Coagulase Negative Staphylococcus (GC 4549) (Staphylococcus sp.): 0.5 µg/mL (≈ 0.361 µM) | MIC Coagulase Negative Staphylococcus (GC 4551) (Staphylococcus sp.): 1 µg/mL (≈ 0.723 µM) | MIC Coagulase Negative Staphylococcus (GC 6257) (Staphylococcus sp.): 0.5 µg/mL (≈ 0.361 µM) | MIC Staphylococcus aureus (ATCC 29213) (Staphylococcus sp.): 1 µg/mL (≈ 0.723 µM) | MIC Staphylococcus aureus (GC 1131) (Staphylococcus sp.): 2 µg/mL (≈ 1.45 µM) | MIC Staphylococcus aureus (GC 3051) (Staphylococcus sp.): 1 µg/mL (≈ 0.723 µM) | MIC Staphylococcus aureus (GC 3053) (Staphylococcus sp.): 1 µg/mL (≈ 0.723 µM) | MIC Staphylococcus aureus (GC 4541) (Staphylococcus sp.): 1 µg/mL (≈ 0.723 µM) | MIC Staphylococcus aureus (GC 4542) (Staphylococcus sp.): 0.5 µg/mL (≈ 0.361 µM) | MIC Staphylococcus aureus (GC 4544) (Staphylococcus sp.): 1 µg/mL (≈ 0.723 µM) | MIC Staphylococcus aureus (GC 4545) (Staphylococcus sp.): 0.5 to 1 µg/mL | MIC Staphylococcus aureus-SMITH (GC 4543) (Staphylococcus sp.): 0.5 to 1 µg/mL | MIC Staphylococcus haemolyticus (GC 4546) (Staphylococcus sp.): 0.5 µg/mL (≈ 0.361 µM) | MIC Staphylococcus haemolyticus (GC 4546) (Staphylococcus sp.; strain GC 4546): 0.5 µg/mL (≈ 0.361 µM) | MIC Coagulase Negative Staphylococcus (GC 4547) (Staphylococcus sp.; strain GC 4547): 1 µg/mL (≈ 0.723 µM) | MIC Coagulase Negative Staphylococcus (GC 4548) (Staphylococcus sp.; strain GC 4548): 0.5 to 1 µg/mL | MIC Coagulase Negative Staphylococcus (GC 4549) (Staphylococcus sp.; strain GC 4549): 0.5 µg/mL (≈ 0.361 µM) | MIC Coagulase Negative Staphylococcus (GC 4551) (Staphylococcus sp.; strain GC 4551): 1 µg/mL (≈ 0.723 µM) | MIC Coagulase Negative Staphylococcus (GC 6257) (Staphylococcus sp.; strain GC 6257): 0.5 µg/mL (≈ 0.361 µM) | MIC Staphylococcus aureus-SMITH (GC 4543) (Staphylococcus sp.; strain SMITH GC 4543): 0.5 to 1 µg/mL | MIC Staphylococcus aureus (ATCC 29213) (Staphylococcus sp.; strain ATCC 29213): 1 µg/mL (≈ 0.723 µM) | MIC Staphylococcus aureus (GC 1131) (Staphylococcus sp.; strain GC 1131): 2 µg/mL (≈ 1.45 µM) | MIC Staphylococcus aureus (GC 3051) (Staphylococcus sp.; strain GC 3051): 1 µg/mL (≈ 0.723 µM) | MIC Staphylococcus aureus (GC 3053) (Staphylococcus sp.; strain GC 3053): 1 µg/mL (≈ 0.723 µM) | MIC Staphylococcus aureus (GC 4541) (Staphylococcus sp.; strain GC 4541): 1 µg/mL (≈ 0.723 µM) | MIC Staphylococcus aureus (GC 4542) (Staphylococcus sp.; strain GC 4542): 0.5 µg/mL (≈ 0.361 µM) | MIC Staphylococcus aureus (GC 4544) (Staphylococcus sp.; strain GC 4544): 1 µg/mL (≈ 0.723 µM) | MIC Staphylococcus aureus (GC 4545) (Staphylococcus sp.; strain GC 4545): 0.5 to 1 µg/mL | MIC Streptococcus agalactiae (GC 4564) (Streptococcus sp.; Streptococcus agalactiae (GC 4564)): <0.12 to 0.25 µg/mL | MIC Streptococcus pneumoniae (ATCC 6301) (Streptococcus sp.; Streptococcus pneumoniae (ATCC 6301)): <0.12 µg/mL | MIC Streptococcus pneumoniae (GC 1894) (Streptococcus sp.; Streptococcus pneumoniae (GC 1894)): <0.12 µg/mL | MIC Streptococcus pneumoniae (GC 4565) (Streptococcus sp.; Streptococcus pneumoniae (GC 4565)): <0.12 µg/mL | MIC Streptococcus pyogenes (GC 4563) (Streptococcus sp.; Streptococcus pyogenes (GC 4563)): <0.12 µg/mL | MIC Streptococcus pneumoniae (ATCC 6301) (Streptococcus sp.; strain ATCC 6301): <0.12 µg/mL | MIC Streptococcus pneumoniae (GC 1894) (Streptococcus sp.; strain GC 1894): <0.12 µg/mL | MIC Streptococcus pyogenes (GC 4563) (Streptococcus sp.; strain GC 4563): <0.12 µg/mL | MIC Streptococcus agalactiae (GC 4564) (Streptococcus sp.; strain GC 4564): <0.12 to 0.25 µg/mL | MIC Streptococcus pneumoniae (GC 4565) (Streptococcus sp.; strain GC 4565): <0.12 µg/mL | median effective dose (ED50), Staphylococcus aureus-SMITH (GC 4543) [1]: 0.19 mg/kg | median effective dose (ED50), Streptococcus pneumoniae (GC 1894) [2]: 0.22 mg/kg | Clinical Chemistry (Day 10) % of Control, AST [3]: +87% | Clinical Chemistry (Day 10) % of Control, BUN [3]: +203% | Clinical Chemistry (Day 10) % of Control, Creatinine [3]: +65% | Anatomical Pathology (Day 10), Heart [4]: +++ | Anatomical Pathology (Day 10), Kidney [4]: +++
